In patent publication US8951993B2, “Phosphorus containing compounds as protein kinase inhibitors” (Jiangsu Hansoh Pharmaceutical Co., Ltd., priority 2011, dated 2015):

Experiments:
[1] = Pharmacokinetic assay, intravenous and oral administration; assay type: in vivo, Sprague-Dawley rats or beagle dogs; settings: plasma; for half-life: after oral administration in rats or dogs; for bioavailability: oral administration in rats or dogs, read-out: oral bioavailabilty
Procedure: The tested articles were given to Sprague-Dawley rats or beagle dogs by intravenous and oral administration. Plasma samples were prepared from blood samples which were collected at various time points. The plasma concentrations of the tested articles were determined by specific LC-MS/MS analytical methods. Pharmacokinetic parameters were calculated with WinNonlin®.

Karpas299 = assay: Cell proliferation assay (MTS / BrdU), Karpas299; assay type: cell-based; settings: Homo sapiens, KARPAS-299; 72 hours, 2% FBS
Procedure: (§1) Karpas299 and SU-DHL-1 cells were purchased from Deutsche Sammlung von Mikroorganismen and Zellkulturen (Germany). H2228 was purchased from American Type Culture Collection (USA). All cells were cultured in the recommended medium and serum concentration. Cells were maintained at 37° C. in a humidified atmosphere with 5% CO2. For ALK kinase phosphorylation, cells were seeded in 96-well plates overnight in medium supplemented with 10% fetal bovine serum […]. After 24 hours, the medium was removed and cells were cultured in serum-free medium at 37° C. in the presence of various concentrations of the test articles for 1 hour. After incubation with the tested articles, cells were washed once with HBSS supplemented with 1 mM Na3VO4 and protein lysates were generated. Subsequently, phosphorylation of ALK was assessed by a sandwich ELISA method using an immobilized anti-total-ALK antibody and an anti-phospho-ALK antibody (pY1604) as a detection antibody. IC50 value was calculated using median-effect method. (Chou 2006).
(§2) For cell proliferation assay, cells were seeded in 96-well pates at low density at 37° C. in medium supplemented with 10% FBS and after 24 hours were switched to low serum medium (2% FBS). Cells were further incubated in the presence of the test articles at various concentrations at 37° C. for 72 hours. Two assays were employed to determine the relative cell numbers. One is a 3-(4,5-dimethylthiazol-2-yl)-5-(3-carboxymethoxyphenyl)-2-(4-sulfophenyl)-2H-tetrazolium (MTS) assay using a CellTiter 96® Aqueous Non-Radioactive Cell Proliferation kit (Promega), and the other is a BrdU incorporation assay using a DELFIA® Cell Proliferation Kit (Perkin Elmer). IC50 value was calculated using median-effect method (Chou 2006).

ALK [2] = biological target: T1, ALK (Homo sapiens, UniProt Q9UM73); assay: ALK enzyme activity assay (HTRF KinEASE); assay type: biochemical; parameters: purchased Millipore Company (Billerica, Mass., USA); settings: ATP 25 μM, 30° C. 30 minutes
Procedure: ALK Enzyme Activity Assay:
ALK kinase was purchased from Millipore Company (Billerica, Mass., USA). HTRF®KinEASET™ was purchased from Cisbio Company (Bedford, Mass., USA). The assay was conducted according to the procedure provided in the assay kit. In brief, incubation was carried out in the kinase buffer containing ALK (0.3 ng/μL), ATP (25 μM), TK substrate-biotin (10 μM), DTT (1 mM), MgCl2 (5 mM), MnCl2 (5 mM) in the presence of the tested articles at various concentrations in 384-well plate at 30° C. for 30 minutes. The reaction was stopped by addition of Sa-XL665 in EDTA solution, and the phosphorylated substrate was detected with a proprietary phospho-specific monoclonal antibody labeled with Eu^3+-Cryptate and a proprietary biotinylated kinase substrate detected using XL665 labeled streptavidin. IC50 value was calculated using median-effect method (Chou 2006).
Target sequence in this assay (Q9UM73 19-1620): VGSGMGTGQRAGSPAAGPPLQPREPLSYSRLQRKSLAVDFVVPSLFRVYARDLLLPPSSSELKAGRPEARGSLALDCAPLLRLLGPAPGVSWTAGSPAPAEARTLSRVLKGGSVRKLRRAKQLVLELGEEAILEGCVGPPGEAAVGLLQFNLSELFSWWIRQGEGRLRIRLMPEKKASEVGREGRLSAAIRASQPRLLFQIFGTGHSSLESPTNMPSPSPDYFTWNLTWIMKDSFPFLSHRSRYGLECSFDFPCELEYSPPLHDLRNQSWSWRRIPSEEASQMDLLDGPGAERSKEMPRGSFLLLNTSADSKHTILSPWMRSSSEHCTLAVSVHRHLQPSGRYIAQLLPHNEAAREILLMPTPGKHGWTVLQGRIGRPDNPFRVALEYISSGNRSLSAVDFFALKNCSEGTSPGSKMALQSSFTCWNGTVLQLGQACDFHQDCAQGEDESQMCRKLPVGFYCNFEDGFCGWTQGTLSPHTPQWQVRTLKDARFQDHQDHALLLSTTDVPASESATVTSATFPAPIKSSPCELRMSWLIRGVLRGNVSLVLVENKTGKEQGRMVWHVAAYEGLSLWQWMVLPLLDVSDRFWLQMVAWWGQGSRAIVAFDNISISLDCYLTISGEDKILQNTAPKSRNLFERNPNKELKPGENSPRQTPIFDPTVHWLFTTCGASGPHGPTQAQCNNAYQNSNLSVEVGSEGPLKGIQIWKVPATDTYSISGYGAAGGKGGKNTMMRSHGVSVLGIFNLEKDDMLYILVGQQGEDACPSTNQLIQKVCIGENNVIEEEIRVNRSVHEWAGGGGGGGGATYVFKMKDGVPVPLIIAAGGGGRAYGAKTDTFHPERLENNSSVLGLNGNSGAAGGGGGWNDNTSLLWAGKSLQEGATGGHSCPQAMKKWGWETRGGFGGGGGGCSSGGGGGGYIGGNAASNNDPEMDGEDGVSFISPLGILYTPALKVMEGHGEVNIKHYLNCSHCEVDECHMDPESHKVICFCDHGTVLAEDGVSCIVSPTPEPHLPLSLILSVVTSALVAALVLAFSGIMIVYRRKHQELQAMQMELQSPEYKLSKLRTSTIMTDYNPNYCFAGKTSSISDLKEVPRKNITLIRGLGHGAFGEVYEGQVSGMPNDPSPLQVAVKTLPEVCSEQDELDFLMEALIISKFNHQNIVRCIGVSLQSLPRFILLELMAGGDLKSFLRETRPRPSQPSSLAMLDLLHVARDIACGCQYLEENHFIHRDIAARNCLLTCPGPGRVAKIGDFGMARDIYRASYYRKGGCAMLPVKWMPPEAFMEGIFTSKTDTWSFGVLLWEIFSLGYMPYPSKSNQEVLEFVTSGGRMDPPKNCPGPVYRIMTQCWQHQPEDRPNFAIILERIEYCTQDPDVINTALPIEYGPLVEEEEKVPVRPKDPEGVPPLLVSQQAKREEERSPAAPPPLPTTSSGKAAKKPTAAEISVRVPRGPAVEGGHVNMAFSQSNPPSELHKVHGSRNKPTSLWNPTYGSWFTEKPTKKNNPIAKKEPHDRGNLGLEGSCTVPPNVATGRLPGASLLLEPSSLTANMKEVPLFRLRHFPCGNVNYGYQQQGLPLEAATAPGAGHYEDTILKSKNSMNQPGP

ALK [3] = biological target: T1, ALK; assay: Inhibition of ALK phosphorylation (sandwich ELISA, pY1604) in SU-DHL-1 cells; assay type: cell-based; parameters: NPM1 portion (fusion partner, nucleophosmin, P06748); host or cells: Karpas299; SU-DHL-1; the other entry of the earlier key: NPM1 (P06748, Nucleophosmin); settings: 1 hour, serum-free
Procedure: as §1
Target sequence in this assay (Q9UM73 with tags, fused parts or gaps): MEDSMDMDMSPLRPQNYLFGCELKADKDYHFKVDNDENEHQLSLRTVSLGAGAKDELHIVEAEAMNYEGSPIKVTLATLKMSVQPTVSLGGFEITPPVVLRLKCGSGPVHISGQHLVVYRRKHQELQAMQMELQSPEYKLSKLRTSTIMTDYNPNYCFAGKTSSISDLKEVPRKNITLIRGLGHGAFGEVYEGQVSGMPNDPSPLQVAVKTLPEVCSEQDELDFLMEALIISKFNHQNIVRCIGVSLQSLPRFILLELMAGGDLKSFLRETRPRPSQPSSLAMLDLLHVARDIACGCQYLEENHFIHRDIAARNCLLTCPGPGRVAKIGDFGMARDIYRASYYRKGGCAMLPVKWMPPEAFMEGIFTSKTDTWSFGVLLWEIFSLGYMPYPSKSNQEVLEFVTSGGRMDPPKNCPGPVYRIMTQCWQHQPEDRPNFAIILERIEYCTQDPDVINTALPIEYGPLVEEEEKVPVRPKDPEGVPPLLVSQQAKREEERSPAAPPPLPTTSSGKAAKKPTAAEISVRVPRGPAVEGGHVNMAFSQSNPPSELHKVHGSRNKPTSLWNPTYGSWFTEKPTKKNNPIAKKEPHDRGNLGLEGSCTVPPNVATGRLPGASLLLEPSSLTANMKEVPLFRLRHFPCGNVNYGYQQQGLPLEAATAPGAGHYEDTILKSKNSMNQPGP

H2228 = assay: Cell proliferation assay (MTS / BrdU), H2228; assay type: cell-based; settings: Homo sapiens, NCI-H2228; 72 hours, 2% FBS
Procedure: as §1, §2

ALK [4] = biological target: T1, ALK; assay: Inhibition of ALK phosphorylation (sandwich ELISA, pY1604) in Karpas299 cells; assay type: cell-based; parameters: NPM1 portion (fusion partner, nucleophosmin, P06748); host or cells: Karpas299; SU-DHL-1; the other entry of the earlier key: NPM1 (P06748, Nucleophosmin); settings: 1 hour, serum-free
Procedure: as §1
Target sequence in this assay (Q9UM73 with tags, fused parts or gaps): as above

SU-DHL-1 = assay: Cell proliferation assay (MTS / BrdU), SU-DHL-1; assay type: cell-based; settings: Homo sapiens, 72 hours, 2% FBS
Procedure: as §1, §2

ALK [5] = biological target: T1, ALK; assay: Inhibition of ALK phosphorylation (sandwich ELISA, pY1604), cell line not given; assay type: cell-based; parameters: fused on or other part: Q9HC35 (Echinoderm microtubule-associated protein-like 4); settings: 1 hour, serum-free
Procedure: as §1
Target sequence in this assay (Q9UM73 1058-1620 limits assumed): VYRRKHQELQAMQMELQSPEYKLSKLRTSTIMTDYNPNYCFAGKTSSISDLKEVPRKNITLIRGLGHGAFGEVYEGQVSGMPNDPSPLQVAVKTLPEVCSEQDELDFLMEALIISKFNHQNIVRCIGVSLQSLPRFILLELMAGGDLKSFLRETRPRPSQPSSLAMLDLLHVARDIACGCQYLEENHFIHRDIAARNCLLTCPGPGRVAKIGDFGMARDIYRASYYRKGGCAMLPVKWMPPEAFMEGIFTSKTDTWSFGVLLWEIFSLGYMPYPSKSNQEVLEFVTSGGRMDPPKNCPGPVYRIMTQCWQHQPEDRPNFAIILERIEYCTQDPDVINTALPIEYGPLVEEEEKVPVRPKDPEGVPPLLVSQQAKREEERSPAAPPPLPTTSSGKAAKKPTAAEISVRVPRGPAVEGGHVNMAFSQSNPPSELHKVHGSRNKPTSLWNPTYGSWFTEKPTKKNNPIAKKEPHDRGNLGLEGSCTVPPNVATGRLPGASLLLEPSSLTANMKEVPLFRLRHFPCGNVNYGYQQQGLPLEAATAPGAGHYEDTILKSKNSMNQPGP

Row | half-life [1] [h] | bioavailability [1] [%] | IC50 (Karpas299) [nM] | IC50 (ALK [2]) [nM] | IC50 (ALK [3]) [nM] | IC50 (H2228) [nM] | IC50 (ALK [4]) [nM] | IC50 (SU-DHL-1) [nM] | IC50 (ALK [5]) [nM] | SMILES
1 | > 3 | > 20 | < 100 | < 100 | < 50 | < 100 | < 100 | < 100 |  | COc1cc(P(C)(C)=O)ccc1-c1cnc(N)c(OC(C)c2c(Cl)ccc(F)c2Cl)c1 (centres unmarked) [Example 8, 3-[1-(2,6-dichloro-3-fluoro-phenyl)ethoxy]-5-(4-dimethylphosphoryl-2-methoxy-phenyl)pyridin-2-amine]
2 |  |  | < 100 | 100 to 500 | < 50 | < 100 | < 100 | < 100 | < 50 | C[C@@H](Oc1cc(-c2ccc(P(C)(C)=O)cc2)cnc1N)c1c(Cl)ccc(F)c1Cl [Example 23, 3-[(1R)-1-(2,6-dichloro-3-fluoro-phenyl)ethoxy]-5-(4-dimethylphosphorylphenyl)pyridin-2-amine]
3 | > 3 | > 20 | 100 to 500 | 100 to 500 |  | < 100 | < 100 | < 100 | < 500 | CC(Oc1cc(-c2ccc(P(C)(C)=O)cc2)cnc1N)c1c(Cl)ccc(F)c1Cl (centres unmarked) [Example 1, 3-[1-(2,6-dichloro-3-fluoro-phenyl)ethoxy]-5-(4-dimethylphosphorylphenyl)pyridin-2-amine]
